Some results are limits rather than exact numbers.

One assay deals with A549 (lung carcinoma). Kind of assay: In vitro antiproliferation assay, A549 cells (TABLE 1 6 point assay; TABLE 2). The assay is classed as cell-based. The following applies: Homo sapiens, A549, 6 point assay; A549 cells; read-out: IC50, A549 cells. How it is done: (§1) Certain compounds were tested against other cell types for their ability to inhibit proliferation in standard antiproliferation assays.

In assay [1] the test system is H1299 (non-small cell lung carcinoma). In words: In vitro antiproliferation assay, H1299 cells (TABLE 1 6 point assay; TABLE 2). In kind it is cell-based. The following applies: Homo sapiens, NCI-H1299, 6 point assay; H1299 cells; read-out: IC50, H1299 cells. How it is done: as §1

Regarding `COCc1cc(Nc2ncc(F)c(NC3C4C=CC(C4)C3C(N)=O)n2)ccc1N1CCN(C)CC1` (racemic) [compound 235, Racemic-(2-exo,3-exo)-N4-(3-aminocarbonylbicyclo[2.2.1]hept-5-en-2-yl)-5-fluoro-N2-[3-methoxymethyl-4-(4-methylpiperazin-1-yl)phenyl)-2,4-pyrimidinediamine], the IC50 (in the assay on A549 (lung carcinoma); in assay [1]) was at most 100 nM in each case.
Consider `CN1CCN(c2ccc(Nc3ncc(F)c(NC4C5C=CC(C5)C4C(N)=O)n3)cc2CO)CC1` (racemic) [compound 236, Racemic-(2-exo,3-exo)-N4-(3-aminocarbonylbicyclo[2.2.1]hept-5-en-2-yl)-5-fluoro-N2-[3-hydroxymethyl-4-(4-methylpiperazin-1-yl)phenyl]-2,4-pyrimidinediamine], for which the IC50 (in the assay with A549 (lung carcinoma); in assay [1]) was at most 100 nM throughout.
In the case of `CN1CCN(c2ccc(Nc3ncc(F)c(NC4C5C=CC(C5)C4C(N)=O)n3)cc2F)CC1` (racemic) [compound 239, Racemic-(2-exo,3-exo)-N4-(3-aminocarbonylbicyclo[2.2.1]hept-5-en-2-yl)-5-fluoro-N2-[3-fluoro-4-(4-methylpiperazin-1-yl)phenyl]-2,4-pyrimidinediamine], the IC50 (with A549 (lung carcinoma); in assay [1]) was at most 100 nM each time.
For the compound `Cc1cc(Nc2ncc(F)c(N[C@@H]3[C@H]4CC[C@H](C4)[C@@H]3C(N)=O)n2)ccc1N1CCN(C)CC1` (racemic) [compound 240, Racemic-(2-exo,3-exo)-N4-(3-aminocarbonylbicyclo[2.2.1]hept-2-yl)-5-fluoro-N2-[3-methyl-4-(4-methylpiperazin-1-yl)phenyl]-2,4-pyrimidinediamine], the IC50 (in the assay with A549 (lung carcinoma); in assay [1]) was at most 100 nM each time.
For the compound `CCN1CCN(c2ccc(Nc3ncc(F)c(NC4C5C=CC(C5)C4C(N)=O)n3)cc2C)CC1` (racemic) [compound 241, Racemic-(2-exo,3-exo)-N4-(3-aminocarbonylbicyclo[2.2.1]hept-5-en-2-yl)-N2-[4-(4-ethylpiperazin-1-yl)-3-methylphenyl]-5-fluoro-2,4-pyrimidinediamine], the IC50 (in the assay with A549 (lung carcinoma); in assay [1]) was at most 100 nM in each case.
In the case of `CN1CCN(c2ccc(Nc3ncc(F)c(NC4C5C=CC(C5)C4C(N)=O)n3)cc2C#N)CC1` (racemic) [compound 243, Racemic-(2-exo,3-exo)-N4-(3-aminocarbonylbicyclo[2.2.1]hept-5-en-2-yl)-N2-[3-cyano-4-(4-methylpiperazin-1-yl)phenyl]-5-fluoro-2,4-pyrimidinediamine], the IC50 (in the assay on A549 (lung carcinoma); in assay [1]) was at most 100 nM in each case.
`Cc1cc(Nc2ncc(F)c(NC3C4C=CC(C4)C3C(N)=O)n2)ccc1N1CCN(C2CCCCC2)CC1` (racemic) [compound 245, Racemic-(2-exo,3-exo)-N4-(3-aminocarbonylbicyclo[2.2.1]hept-5-en-2-yl)-N2-[4-(4-cyclohexylpiperazin-1-yl)-3-methylphenyl]-5-fluoro-2,4-pyrimidinediamine]: the IC50 (with A549 (lung carcinoma); in assay [1]) was at most 100 nM in each case.
For the compound `Cc1cc(Nc2ncc(F)c(NC3C4C=CC(C4)C3C(N)=O)n2)ccc1O` (racemic) [compound 250, Racemic-(2-exo,3-exo)-N4-(3-aminocarbonylbicyclo[2.2.1]hept-5-en-2-yl)-5-fluoro-N2-[(4-hydroxy-3-methyl)phenyl]-2,4-pyrimidinediamine], the half-maximal inhibitory concentration (IC50) (in the assay with A549 (lung carcinoma); in assay [1]) was at most 100 nM each time.
Take `Cc1cc(Nc2ncc(F)c(NC3C4C=CC(C4)C3C(N)=O)n2)ccc1N1CCSCC1` (racemic) [compound 251, Racemic-(2-exo,3-exo)-N4-(3-aminocarbonylbicyclo[2.2.1]hept-5-en-2-yl)-5-fluoro-N2-[(3-methyl-1-thiomorpholin-4-yl)phenyl]-2,4-pyrimidinediamine]: the IC50 (in the assay on A549 (lung carcinoma); in assay [1]) was at most 100 nM in each case.
With `Cc1cc(Nc2ncc(F)c(NC3C4CCC(C4)C3C(=O)NC3CC3)n2)ccc1N1CCN(C)CC1` (racemic) [compound 252, Racemic-(2-exo,3-exo)-N4-(3-N-cyclopropylaminocarbonylbicyclo[2.2.1]hept-2-yl)-5-fluoro-N2-[3-methyl-4-(4-methylpiperazin-1-yl)phenyl]-2,4-pyrimidinediamine], the IC50 (in the assay on A549 (lung carcinoma); in assay [1]) was at most 100 nM throughout.
As to `CNC(=O)c1cc(Nc2ncc(F)c(NC3C4C=CC(C4)C3C(=O)OC)n2)ccc1N1CCN(C)CC1` (racemic) [compound 254, Racemic-(2-exo,3-exo)-5-fluoro-N4-(3-methoxycarbonylbicyclo [2.2.1]hept-5-en-2-yl)-N2-[3-methylaminocarbonyl-4-(4-methylpiperazin-1-yl)phenyl]-2,4-pyrimidinediamine], the IC50 (in the assay with A549 (lung carcinoma); in assay [1]) was 1000 to 10000 nM each time.
Regarding `CNC(=O)c1cc(Nc2ncc(F)c(NC3C4C=CC(C4)C3C(N)=O)n2)ccc1N1CCN(C)CC1` (racemic) [compound 255, Racemic-(2-exo,3-exo)-N4-(3-aminocarbonylbicyclo[2.2.1]hept-5-en-2-yl)-5-fluoro-N2-[3-methylaminocarbonyl-4-(4-methylpiperazin-1-yl)phenyl]-2,4-pyrimidinediamine], the IC50 (in the assay with A549 (lung carcinoma); in assay [1]) was 100 to 1000 nM throughout.
For `COc1cc(Nc2ncc(F)c(NC3C4C=CC(C4)C3C(N)=O)n2)ccc1N1CCN(C)CC1` (racemic) [compound 256, Racemic-(2-exo,3-exo)-N4-(3-aminocarbonylbicyclo[2.2.1]hept-5-en-2-yl)-5-fluoro-N2-[3-methoxy-4-(4-methylpiperazin-1-yl)phenyl]-2,4-pyrimidinediamine], the IC50 (with A549 (lung carcinoma); in assay [1]) was at most 100 nM throughout.
Take `CN1CCN(c2ccc(Nc3ncc(F)c(NC4C5C=CC(C5)C4C(N)=O)n3)cc2C(N)=O)CC1` (racemic) [compound 260, Racemic-(2-exo,3-exo)-N2-[3-aminocarbonyl-4-(4-methylpiperazin-1-yl)phenyl]-N4-(3-aminocarbonylbicyclo[2.2.1]hept-5-en-2-yl)-5-fluoro-2,4-pyrimidinediamine]: the half-maximal inhibitory concentration (IC50) (with A549 (lung carcinoma); in assay [1]) was 100 to 1000 nM throughout.
Take `CCS(=O)(=O)N1CCN(c2ccc(Nc3ncc(F)c(NC4C5C=CC(C5)C4C(N)=O)n3)cc2C)CC1` (racemic) [compound 261, Racemic-(2-exo,3-exo)-N4-(3-aminocarbonylbicyclo[2.2.1]hept-5-en-2-yl)-N2-[4-(4-ethylsulfonylpiperazin-1-yl)-3-methylphenyl]-5-fluoro-2,4-pyrimidinediamine]: the IC50 (in the assay with A549 (lung carcinoma); in assay [1]) was at most 100 nM in each case.
`Cc1cc(Nc2ncc(F)c(NC3C4C=CC(C4)C3C(N)=O)n2)ccc1NC1CCN(C)CC1` (racemic) [compound 262, Racemic-(2-exo,3-exo)-N4-(3-aminocarbonylbicyclo[2.2.1]hept-5-en-2-yl)-5-fluoro-N2-[3-methyl-4-(1-methylpiperidin-4-ylamino)phenyl]-2,4-pyrimidinediamine]: the IC50 (with A549 (lung carcinoma); in assay [1]) was at most 100 nM throughout.
Consider `NC(=O)C1C2C=CC(C2)C1Nc1nc(Nc2ccc(C3CCNCC3)cc2)ncc1F` (racemic) [compound 264, Racemic-(2-exo,3-exo)-N4-(3-aminocarbonylbicyclo[2.2.1]hept-5-en-2-yl)-5-fluoro-N2-[4-(piperidin-4-yl)phenyl]-2,4-pyrimidinediamine], for which the figures for the half-inhibitory concentration (IC50) (in the assay on A549 (lung carcinoma); in assay [1]) were at most 100 nM and 100 to 1000 nM, respectively.
Consider `CN1CCC(c2ccc(Nc3ncc(F)c(NC4C5C=CC(C5)C4C(N)=O)n3)cc2)CC1` (racemic) [compound 265, Racemic-(2-exo,3-exo)-N4-(3-aminocarbonylbicyclo[2.2.1]hept-5-en-2-yl)-5-fluoro-N2-[4-(1-methylpiperidin-4-yl)phenyl]-2,4-pyrimidinediamine], for which the IC50 (in the assay with A549 (lung carcinoma); in assay [1]) was at most 100 nM throughout.
As to `COc1cc(Nc2ncc(F)c(N[C@@H]3[C@H](C(N)=O)[C@H]4C=C[C@@H]3C4)n2)ccc1N1C(=O)CN(C)CC1=O` (racemic) [compound 266, Racemic-(2-exo,3-exo)-N4-(3-aminocarbonylbicyclo[2.2.1]hept-5-en-2-yl)-5-fluoro-N2-[3-methoxy-4-(4-methyl-2,6-dioxopiperazino)phenyl]-2,4-pyrimidinediamine], the IC50 (in the assay with A549 (lung carcinoma); in assay [1]) was 100 to 1000 nM throughout.
Take `NC(=O)C1C2C=CC(C2)C1Nc1nc(Nc2cccc(C3CCNCC3)c2)ncc1F` (racemic) [compound 267, Racemic-(2-exo,3-exo)-N4-(3-aminocarbonylbicyclo[2.2.1]hept-5-en-2-yl)-5-fluoro-N2-[3-(piperidin-4-yl)phenyl]-2,4-pyrimidinediamine]: the IC50 (in the assay with A549 (lung carcinoma); in assay [1]) was at most 100 nM in each case.
As for `CN1CCC(c2cccc(Nc3ncc(F)c(NC4C5C=CC(C5)C4C(N)=O)n3)c2)CC1` (racemic) [compound 268, Racemic-(2-exo,3-exo)-N4-(3-aminocarbonylbicyclo[2.2.1]hept-5-en-2-yl)-5-fluoro-N2-[3-(1-methylpiperidin-4-yl)phenyl]-2,4-pyrimidinediamine], the IC50 (in the assay on A549 (lung carcinoma); in assay [1]) was at most 100 nM in each case.
As for `Cc1cc(Nc2ncc(F)c(NC3C4C=CC(C4)C3C(N)=O)n2)cc(C)c1N1CCN(C)CC1` (racemic) [compound 271, Racemic-(2-exo,3-exo)-N4-(3-aminocarbonylbicyclo[2.2.1]hept-5-en-2-yl)-N2-[3,5-dimethyl-4-(4-methylpiperazin-1-yl)phenyl]-5-fluoro-2,4-pyrimidinediamine], the IC50 (in the assay with A549 (lung carcinoma); in assay [1]) was 1000 to 10000 nM in each case.

For the origin of these results see US7868013B2, “Cycloalkyl substituted pyrimidinediamine compounds and their uses” (Rigel Pharmaceuticals, Inc., priority 2004, dated 2011).
